Measurements: patent publication US20030054291A1, “Optical data storage medium containing a hemicyanine dye as the light-absorbing compound in the information layer” (priority 2001, published 2003)

Assay: Solubility in TFP (2,2,3,3-tetrafluoropropanol)
Assay type: physicochemical
From the text: Solubility: >2% in TFP (2,2,3,3-tetrafluoropropanol)

For `CN(C)c1ccc(/C=C/C2=[N+](C)c3ccccc3C2(C)C)o1` [Example 1], the Solubility was > 2%.
